Legend:
Conditions in all cases: 24 h
[1] = system: NRK-52E, normal rat kidney cells
[2] = system: H9c2 (2-1), normal rat cardiac muscle cells
[3] = system: AML-12, normal mouse liver cells

COc1c(C)cc2c(c1O)[C@@H]1C3[C@@H]4SC[C@]5(NCCc6c5[nH]c5c(C)cccc65)C(=O)COC[C@@H](c5c6c(c(C)c(OC(C)=O)c54)OCO6)N3[C@@H](O)[C@H](C2)N1C (stereo partly drawn) [Compound 36]
Kidney [1]: 3.56E−07
Heart [2]: 8.86E−07
Liver [3]: 3.19E−07
